Results published in patent publication US11833125B2, “Pharmaceutical composition for controlled release of treprostinil” (Pharmosa Biopharm Inc., priority 2018, dated 2023).

Columns and labels:
[1] = In vivo pharmacokinetics study, intra-tracheal administration, plasma treprostinil by LC-MS/MS; design: species or system Sprague-Dawley rats; conditions: rat, FIGS. 1A and 1B
Experimental: In this in vivo PK study, Sprague-Dawley rats (purchased from BioLASCO Taiwan Co., Ltd.) were anaesthetized with isoflurane, and positioned securely on its back to an arched platform in a dorsal position at a 45° to 50° plane using a ribbon hooked around upper incisors. A microspray aerosol tip (Microsprayer, PennCentury, Philadelphia, USA) was inserted to the tracheal bifurcation of each rat, and a test sample (i.e., compositions in Table 2 or free treprostinil solution) was administered intra-tracheally to each rat at a given dose using a high-pressure syringe that is attached to the microspray aerosol device. […] The blood sample was then centrifuged at approximately 2500×g for 15 min and at 4±2° C. within 1 hour of collection, so as to separate the plasma from the blood cells. Approximately 0.1 mL of the obtained plasma sample from each rat was added into a new storage tube and stored in a freezer with a temperature maintained at −70±2° C. […] The obtained supernatant (150 μL) was mixed with an equal volume of H2O and analyzed by liquid chromatography-tandem mass spectrometry (LC-MS/MS) to determine the treprostinil concentration in the plasma sample of the rat. […]

[2] = system: Sprague Dawley rats; assay: Safety evaluation of inhaled composition: cage-side observation of upper airway irritation; type: in vivo; conditions: nebulized, nose-only inhalation, 6 μg/kg/day for 10 days; frequency of clinical signs in 10 inhalations; n = 3
Experimental: In this study, 8 male Sprague Dawley rats (purchased from BioLASCO Taiwan Co., Ltd.) were divided into 3 groups: control group (n=2), comparative group (n=3) and experimental group (n=3). The experimental group rats and the comparative group rats were placed in restraining tubes and given nebulized treprostinil liposomal composition LB11500 from Example 2 and free treprostinil solution, respectively, at a dosage of 6 μg/kg/day for 10 days, via a 20-port nose-only Buxco inhalation exposure system (DSI, USA). An air flow carried aerosol generated by mesh vibrating nebulizer was provided to the system tower where the rats are encased in, at a rate of 10 L/min. The control group rats received no exposure to the drug.
During the study, cage-side clinical observation was performed on each rat by a single observer to record incidences of upper airway irritation due to the inhaled nebulized treprostinil liposomal composition or free treprostinil solution. Manifestations of upper airway irritation include tension, sneezing, erythematous pinnae, tremor, hunched posture, piloerection, tachypnea and labored breathing, hyperpnea and epistaxis.

## CCCCC[C@H](O)CC[C@@H]1[C@H]2Cc3cccc(OCC(=O)O)c3C[C@H]2C[C@H]1O [free treprostinil, treprostinil]
[1]
  time at which plasma treprostinil concentration peaked: ≤ 5 min
[2]
  Incidences of upper airway irritation: 17
